Measured values taken from PubChem BioAssay (NCI).
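Assay format: 96-well plates, 48-hour exposure. At the GI50, growth is halved. TGI: total growth inhibition.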

Key:
Experiment in all cases: NCI anticancer screen, dose series, 48 h
HCT-15 colon = test system: HCT-15 colon
UACC-62 melanoma = test system: UACC-62 melanoma
SK-MEL-28 melanoma = test system: SK-MEL-28 melanoma
CCRF-CEM leukemia = test system: CCRF-CEM leukemia
A549 NSCLC = test system: A549 NSCLC
HCC-2998 colon = test system: HCC-2998 colon
SF-268 CNS = test system: SF-268 CNS
OVCAR-5 ovarian = test system: OVCAR-5 ovarian
MALME-3M melanoma = test system: MALME-3M melanoma
NCI-H23 lung = test system: NCI-H23 lung

SMILES	TGI (HCT-15 colon)	TGI (UACC-62 melanoma)	TGI (SK-MEL-28 melanoma)	TGI (CCRF-CEM leukemia)	TGI (A549 NSCLC)	TGI (HCC-2998 colon)	TGI (SF-268 CNS)	TGI (OVCAR-5 ovarian)	TGI (MALME-3M melanoma)	TGI (NCI-H23 lung)	GI50 (HCT-15 colon)	GI50 (CCRF-CEM leukemia)	GI50 (HCC-2998 colon)	GI50 (NCI-H23 lung)	GI50 (UACC-62 melanoma)	GI50 (SK-MEL-28 melanoma)	GI50 (A549 NSCLC)	GI50 (SF-268 CNS)	GI50 (OVCAR-5 ovarian)	GI50 (MALME-3M melanoma)
O=C(O)C(Br)Cc1ccc2c(c1)OCO2 (stereo not given)	> 100 µM	> 100 µM	> 100 µM	> 100 µM	> 100 µM	> 100 µM	> 100 µM	> 100 µM	> 100 µM	> 100 µM										
COc1cc2c3c(c4cc(OC)c(OC)cc4c2cc1OC)[C@H](O)[C@@H]1CCCN1C3	5.45 µM	0.395 µM	> 100 µM	> 100 µM	2.56 µM			0.732 µM	6.69 µM	1.93 µM										
CSc1sc(=S)sc1SC	> 100 µM	> 100 µM	> 100 µM	> 100 µM	> 100 µM	> 100 µM	> 100 µM	> 100 µM	> 100 µM	> 100 µM										
COc1cc2c3c(n(C4CCNCC4)c(=O)c2cc1OC)-c1cc2c(cc1C3=O)OCO2	1.77 µM			2.25 µM		2.71 µM				2.39 µM	396 nM	287 nM	1340 nM	538 nM						
S=C1NN=C2C(=C3CCCC4C5CCCCC5N2C34)N1 (stereo not given)	> 100 µM		> 100 µM	> 100 µM	> 100 µM		> 100 µM	> 100 µM	> 100 µM	> 100 µM										
C#C[C@@]1(O)[C@@H](CO)O[C@@H](n2cc(F)c3c(N)ncnc32)[C@@H]1O	3.19 µM	1.47 µM	> 100 µM	> 100 µM	2.64 µM	2.82 µM	78.3 µM	> 100 µM	1.81 µM	6.85 µM	297 nM	338 nM	600 nM	398 nM	331 nM	4.26 µM	377 nM	751 nM	1780 nM	362 nM
C[C@H](CCC1=NCCN1)[C@H]1CC[C@H]2[C@@H]3CC[C@@H]4C[C@H](O)CC[C@]4(C)[C@H]3CC[C@]12C	> 50.2 µM	4.26 µM	4.86 µM	14.2 µM	22.4 µM	24.6 µM	34.3 µM	34.7 µM	7.76 µM	35 µM										
CCCCCCCCCCCCCCCCOCCCOP(=O)(O)C1CCCN(O)C1=O (stereo not given)	12.1 µM	7.18 µM	44.3 µM	30 µM	14.4 µM	14.6 µM	11.7 µM	18.6 µM	10.8 µM	20.5 µM	472 nM	553 nM	1110 nM	4190 nM	1290 nM	3.46 µM	3560 nM	1810 nM	1630 nM	2640 nM
COc1ccc(/C(Cl)=C(\C=O)c2ccc(Cl)c(Cl)c2)cc1OC	20.7 µM	24.2 µM	28 µM	8.72 µM			18.5 µM		42.5 µM											
